According to patent publication US7829277B2, “Methods for identifying compounds that suppress chemically-induced carcinogenesis” (The Regents of the University of California, priority 2004, dated 2010):

Columns and labels:
[1] = system: PC3 prostate cancer cells; conditions: PC3 prostate cancer cells treated with genistein; cited from earlier work
[2] = system: C3H 10T1/2 mouse embryo fibroblast cells; conditions: lunasin added exogenously at nanomolar concentrations; cited from earlier work
[3] = system: normal prostate epithelial cells (RWPE-1); experiment: Microarray gene expression profile (Affymetrix Human Genome U133A) after lunasin treatment; assay type: cell-based
Method: (§1) Rostate epithelial cells, RWPE-1 (normal) and RWPE-2 (malignant) were cultivated in the Keratinocyte-Serum free medium with 5 ng/ml rEGF and 0.05 mg/ml bovine pituitary extract. Cells were grown to 70% confluence, after which, cells were harvested and transferred to a 150 mm^2 plate at a cell density of 1×10^7 cells/ml. Lunasin peptide was added to a final concentration of 2 μM. The cells were incubated for 24 hours after lunasin treatment. […] RWPE-1 and RWPE-2 cells that were not treated with lunasin served as negative controls.
(§2) Microarrray analysis. Total RNA from each treatment was isolated by Trizol (Invitrogen, Carlsbad, Calif.). The cDNA used in microarray analysis was synthesized from 10 μg of total RNA using the SuperScript Choice system (Invitrogen). The cDNA was then transcribed in vitro in the presence of biotin-labeled nucleotide triphophates using T7 RNA polymerase after phenol-chloroform extraction and ethanol precipitation. cRNA was purified using the RNeasy mini kit (Qiagen) and fragmented at 94° C. for 30 min in the buffer containing 0.2 M Tris-acetate (pH 8.1) 0.5 M potassium acetate, and 0.15 M magnesium acetate. Fragmented cRNA was hybridized overnight at 45° C. to the human genome U133A Genechips (Affymetrix) representing approximately 22,215 transcripts. Hybridization was then detected using a confocal laser scanner (Affymetrix). The gene expression levels of samples were normalized and analyzed using RMA analysis (Irizarry et al., 2003).

[4] = system: malignant prostate epithelial cells (RWPE-2); experiment: as above; assay type: cell-based
Method: as §1, §2

[5] = system: p21/WAF1/Cip1 protein in cells transfected by the E1A oncogene; conditions: not in untransfected control cells; cited from earlier work
deacetylated histone H4 = deacetylated histone H4 (Homo sapiens, UniProt P62805); conditions: chemically synthesized lunasin; cited from earlier work
nucleus = conditions: after 18 hours of incubation; cited from earlier work
[6] = system: E1A-transfected mouse fibroblast NIH 3T3 cells; conditions: E1A-transfected NIH 3T3 cells; cited from earlier work
[7] = system: E1A-transfected C3H10T1/2 cells; conditions: cited from earlier work
female SENCAR mice = conditions: topical application; cited from earlier work
[8] = system: THBS1, PRKAR1A, TOB1, HIF1A mRNA in RWPE-1 and RWPE-2 cells; experiment: Real-time RT-PCR verification of selected genes; assay type: cell-based, human; conditions: RWPE-1 and RWPE-2 treated with 2 microMoles lunasin; normalized to β-actin
Method: HIFIA-hypoxia-inducible factor 1, alpha subunit; PRKARIA-protein kinase, cAMP-dependent, regulatory, type I, alpha; TOB 1-transducer of ERBB2, 1; THSB 1-thrombospondin 1
Quantitative PCR. To confirm microarray data, the total RNA prepared for microarray analysis was used for RT-PCR analysis of selected genes. The cDNA used for quantitative PCR was synthesized from 3 μg of total RNA using the SuperScript First-Strand Synthesis for RT-PCR kit (Invitrogen), following manufacturer's recommendations. The cDNA was diluted 4-fold and 2 μl of cDNA was added to the quantitative PCR reaction using FAM-labeled TaqMan probes purchased from Applied Biosystems. The quantitative PCR reactions were performed in triplicate using a PRISM® ABI 7900HT Sequence Detection System (Applied Biosystems) and the expression of the β-actin gene (BACT) was used for normalization. Changes in expression were calculated using relative quantification as follows: ΔΔCt=ΔCtq−ΔCtcb; where Ct=the cycle number at which amplification rises above the background threshold, ΔCt=the change in Ct between two test samples, q=the target gene, and cb=the calibrator gene. Gene expression is then calculated as 2^−ΔΔ^Ct (Applied Biosystems).

[9] = system: normal prostate epithelial cells; conditions: cited from earlier work
[10] = system: prostate cancer cell lines; conditions: cited from earlier work
[11] = RWPE-1, 24 hour exposure to 2 micromolar lunasin

O=c1c(-c2ccc(O)cc2)coc2cc(O)cc(O)c12 [genistein]
gene expression regulation (microarray) [1]: regulates the expression of genes that are involved in control of cell growth, cell cycle, apoptosis, cell signaling, angiogenesis, tumor cell invasion and metastasis

lunasin
suppression of chemical carcinogen-induced (DMBA, MCA) foci formation [2]: Significant suppression | genes down-regulated ([3]; RWPE-1, 24 h lunasin): No genes were down-regulated | Fold-change BNIP3, NIP3 (BCL2/adenovirus E1B 19 kDa interacting prot. 3) [3, 11]: 2.05 | Fold-change BUB1B, BUBR1 [3, 11]: 2.23 | Fold-change ERBB2IP, ERBIN (erbb2 interacting protein) [3, 11]: 2.23 | Fold-change MAD2L1 (MAD2 mitotic arrest deficient-like 1) [3, 11]: 2.12 | Fold-change PORIMIN (pro-oncosis receptor inducing membrane injury gene) [3, 11]: 2.26 | Fold-change PRKAR1A, PKA (protein kinase, cAMP-dependent, regulatory, type I, alpha) [3, 11]: 2.45 | Fold-change PRKCL2, PRK2 (protein kinase C-like 2) [3, 11]: 2.33 | Fold-change PSMC6 (proteasome 26S subunit, ATPase, 6) [3, 11]: 2.58 | Fold-change RANBP2 (RAN binding protein 2) [3, 11]: 2.36 | Fold-change SMURF2 (E3 ubiquitin ligase SMURF2) [3, 11]: 2.29 | Fold-change SPTLC1 (serine palmitoyltransferase, long chain base subunit 1) [3, 11]: 2.12 | Fold-change THBS1, TSP1 (thrombospondin 1) [3, 11]: 2.05 | Fold-change TOB1 (transducer of ERBB2, 1) [3, 11]: 2.32 | Fold-change TTK (TTK protein kinase) [3, 11]: 2.08 | Fold-change UBE1C (ubiquitin-activating enzyme E1C) [3, 11]: 2.15 | Fold-change USP1 (ubiquitin specific protease 1) [3, 11]: 2.23 | total number of genes with a greater than twofold change in expression ([3]; RWPE-1 and RWPE-2 together, of up to 22,215 genes screened, 24 h lunasin): 123 genes | number of genes up-regulated (greater than twofold) ([3]; RWPE-1 normal cells, 24 h exposure to lunasin peptide): 121 genes | BTB (POZ) containing domain 1 (ABTB1 or BPOZ) gene regulation (microarray) ([3]; microarray, lunasin treatment): up-regulated | SP3 gene regulation (microarray) ([3]; microarray, lunasin treatment): up-regulated | connexin 43 gap junction protein expression (microarray) ([3]; microarray, lunasin treatment): up-regulates | cyclin D1 regulation (microarray) ([3]; microarray, lunasin treatment): do not show down regulation | hypoxia-inducible factor-1α (HIF1-A) gene regulation (microarray) ([3]; microarray, lunasin treatment): up-regulated | p21/WAF1/Cip1 transcript regulation (microarray) ([3]; microarray, lunasin treatment): did not show up-regulation | genes down-regulated ([4]; RWPE-2, 24 h lunasin): No genes were down-regulated | number of genes up-regulated (greater than twofold) ([4]; RWPE-2 malignant cells, 24 h exposure to lunasin peptide): 2 genes | p21/WAF1/Cip1 protein levels [5]: increased by five fold | binding to histone in vitro (deacetylated histone H4): preferentially binds deacetylated histone H4 | subcellular localization (nucleus): localize in the nucleus | foci formation [6]: suppress foci formation | apoptosis induction [7]: induce apoptosis | skin tumorigenesis (female SENCAR mice): inhibited skin tumorigenesis | real-time RT-PCR mRNA level changes of THBS1, PRKAR1A, TOB1, HIF1A [8]: consistent with the microarray data

B1: BBI: soybean derived serine protease inhibitor with anti-carcinogenic activity (protein, UniProt P01055 40-110, looked up)
Bowman-Birk type proteinase …: DDESSKPCCDQCACTKSNPPQCRCSDMRLNSCHSACKSCICALSYPAQCFCVDITDFCYEPCKPSEDDKEN
effect on normal prostate epithelial cells [9]: no effect | growth, invasion and clonogenic survival of prostate cancer cell lines [10]: inhibited the growth, invasion and clonogenic survival
